Source: patent US5015661A, “Chromanes and their pharmaceutical compositions and methods” (Hoffmann-La Roche Inc., priority 1989, dated 1991)

biological target: T1, Δ^5 -lipoxygenase from rat basophilic leukemia (RBL-1) cells (Rattus norvegicus, UniProt P12527); test: In vitro test for Δ^5 -lipoxygenase inhibitors (5-LO), RBL-1 cell enzyme, 5-HETE radioimmunoassay; format: biochemical; settings: RBL-1 5-LO; 10 min preincubation; 8.25 μM arachidonic acid, 10 min at 37° C.; 5-HETE formation; read-out: 5-LO IC-50
T1 construct: endogenous in cells; host or cells: RBL-1 rat basophilic leukemia cells (ATCC CRL 1378); 113,000×g supernatant (cytosolic fraction)
T1 sequence (P12527 1-673): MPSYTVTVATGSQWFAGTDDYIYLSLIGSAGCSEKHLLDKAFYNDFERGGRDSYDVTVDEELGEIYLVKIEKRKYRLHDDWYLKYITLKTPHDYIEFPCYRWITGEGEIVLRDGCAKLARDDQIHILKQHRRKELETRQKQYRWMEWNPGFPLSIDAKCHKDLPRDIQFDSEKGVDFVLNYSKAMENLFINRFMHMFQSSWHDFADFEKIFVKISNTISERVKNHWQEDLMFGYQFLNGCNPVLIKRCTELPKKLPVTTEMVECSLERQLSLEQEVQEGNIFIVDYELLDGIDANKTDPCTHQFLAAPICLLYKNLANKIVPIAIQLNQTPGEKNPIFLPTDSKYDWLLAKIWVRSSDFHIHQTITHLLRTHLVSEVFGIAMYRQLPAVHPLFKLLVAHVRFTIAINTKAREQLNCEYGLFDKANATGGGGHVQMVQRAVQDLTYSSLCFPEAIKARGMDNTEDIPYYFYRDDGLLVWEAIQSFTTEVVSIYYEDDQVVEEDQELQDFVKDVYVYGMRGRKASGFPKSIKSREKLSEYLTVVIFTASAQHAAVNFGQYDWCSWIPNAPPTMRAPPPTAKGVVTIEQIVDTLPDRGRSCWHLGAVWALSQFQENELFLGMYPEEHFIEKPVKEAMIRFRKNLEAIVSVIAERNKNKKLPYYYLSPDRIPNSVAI
Description: IN VITRO TEST FOR Δ^5 -LIPOXYGENASE INHIBITORS Compounds of formula I of the invention were tested for their effect on Δ^5 -lipoxygenase from rat basophilic leukemia (RBL-1) cells. Materials. RBL-1 cells (CRL 1378) were obtained from the American TYpe Culture Collection, Rockville, MD. DMEM and glutamine were purchased from Flow Labs, McLean, VA. FBS (Gibco, Grand Island, NY) was heat-inactivated for 1 hour at 56° C. Reagents for protein determinations were obtained from Biorad, Rockville Center, NY. Arachidonic acid (approx. 99%), ATP (disodium slat), BHT, dextran (clinical grade), tetrasodium EDTA, gelatin, gentamycin sulfate solution, reduced glutathione, 1 M HEPES buffer, indomethacin, NaCl, reduced NADpH, Trizma 7.2, and Trizma 8.5 were purchased from Sigma Chemical, St. Louis, MO. CaCl2 dihydrate, Norit A charcoal, and citric acid monohydrate were obtained from Fisher Scientific, Pittsburgh, PA. […] MA. A synthetic 5-HETE standard was supplied by Dr. M. Rosenberger, Dept. of Medicinal Chemistry, Hoffmann-La Roche, Nutley, NJ; [see Corey, E.J., and Hashimoto, S. (1981 ) Tet. Letters, 22, 299-302 for method of preparation]. Ecoscint liquid sointillation fluid was purchased from National Diagnostics, Sommerville, NJ. Isolation of 5-lipoxygenase. […] Approximately 7-9 days after thawing, RBL-1 cells growing in log phase were seeded at a density of 7500 viable cells/ml in a closed 89-liter spinner flask. The cells were stirred constantly for 3-4 days at 37° C. until they reached a density greater than 500,000/ml but less than 800,00/ml. RBL-1 cells were harvested by centrifugation at 4° C. at 1500×g for 10 minutes and were washed 3 times with ice cold 0.05 M tris-HCl, pH 7.2, tetrasodium EDTA (buffer 1). The cells were washed last in 0.05 M Tris-HCl containing 14 μM indomethacin, 1 mM glutathione, 1.5 mM NaCl, and 1 mM tetrasodium EDTA (buffer 2), resuspended at a density of 5×108'/ml (approximately 10 ml) and disrupted manually at 4° C. using a 40 ml Dounce (type A pestle) homogenizer. After 5 minutes of homogenization. 95% cell lysis was confirmed by phase contrast microscopy. The broken cells were diluted 1:2 with buffer 2 and centrifuged at 12,380×g for 10 minutes at 4° C. to pellet cellular debris and granules. The 12,380×g supernatant was centrifuged at 113,000×g for 60 minutes to pellet microsomes. The high-speed supernatant (5.9±0.48 mg/ml protein) was frozen immediately in 1 ml aliquots using a dry ice/acetone bath. The isolated cytosolic fraction was stored in liquid N2 for up to 8 weeks without loss of 5-LO enzyme activity. Lipoxygenase Assay. Compounds Were dissolved at 25 mM concentration in DMSO, then diluted to final concentrations using 95% ethanol. For a typical enzyme assay, the partially purified 5-LO preparation was preincubated with drug or vehicle for 10 minutes at 30° C. The assay tubes were then transferred at a 37° C. water bath where they received arachidonic acid (8.25 μM final concentration) to initiate 5-LO activity. In addition to enzyme and substrate, each reaction tube contained: 12.5 μmoles of Tris-HCl (pH 7.2), 25 nmoles glutathione, 0.35 nmoles indomethacin and 1.25 μmoles of CaCl2 and ATP to yield a total of volume of 250 μl. The enzyme reaction was terminated after 10 minutes by the addition of 75μl […] citric acid to yield pH 3.5. The samples were immediately cooled on ice and neutralized by dilution with 0.05 M Tris-HCl, pH 8.5, which contained 25 mg/1 BHT. A boiled cytosol control was placed at the end of each assay to measure non-enzymatic oxidation of arachidonic acid. The mean specific activity of the 5-LO enzyme preparation was approximately 66.16±14.39 pmol 5-HETE/min/mg protein. Radioimmunoassay for 5-HETE. Under the assay conditions described, the 5-LO catalyzed the conversion of arachidonic acid to 5-HPETE which, as a consequence o peroxidase activity, was reduced to 5-HETE. A specific radioimmunoassay was employed to quantitate the amount (pmoles) of 5-HETE formed during the enzyme reaction. […]

| Compound | IC50 |
| --- | --- |
| Cc1c(C)c2c(c(C)c1O)CCC(C)(C#Cc1ccccc1)O2 (racemic) [Example 1, rac-3,4-Dihydro-2,5,7,8-tetramethyl-2-(phenylethynyl)-2H-1-benzopyran-6-ol] | 40 nM |
| Cc1c(C)c2c(c(C)c1O)CCC(C)(C#Cc1cccs1)O2 (racemic) [Example 4, rac-3,4-Dihydro-2,5,7,8-tetramethyl-2-[(2-thienyl)ethynyl]-2H-1-benzopyran-6-ol] | 23 nM |
| Cc1c(C)c2c(c(C)c1O)CCC(C)(C#Cc1cccnc1)O2 (racemic) [Example 14, rac-3,4-Dihydro-2,5,7,8-tetramethyl-2-[(3-pyridinyl)ethynyl]-2H-1-benzopyran-6-ol] | 40 nM |
| Cc1c(C)c2c(c(C)c1O)CCC(C)(C#Cc1ccccn1)O2 (racemic) [Example 15, rac-3,4-Dihydro-2,5,7,8-tetramethyl1-2-[(2-pyridinyl)ethynyl]-2H-1-benzopyran-6-ol] | 16 nM |
| Cc1c(C)c2c(c(C)c1O)CCC(C)(C#Cc1csc3ccccc13)O2 (racemic) [Example 16, rac-[2-(Benzo[b]thiophen-3-yl)ethynyl]-3.4-dihydro-2,5,7,8-tetramethyl-2H-1-benzopyran-2H-1-benzopyran-6-ol] | 1.6 nM |
| COc1ccc(C#CC2(C)CCc3c(C)c(O)c(C)c(C)c3O2)cc1OC(C)=O (racemic) [Example 20, rac-2-[(3-Acetyloxy-4-methoxyphenyl)ethynyl]-3.4-dihydro-2,5,7,8-tetramethyl-2H-1-benzopyran-6-ol] | 24 nM |
| COc1cccc(C#CC2(C)CCc3c(C)c(O)c(C)c(C)c3O2)c1 (racemic) [Example 22, rac-3,4-Dihydro-2-(3-methoxyphenyl)ethynyl)-2,5,7,8-tetra-methyl-2H-1-benzopyran-6-ol] | 170 nM |
| COC(=O)c1cc(C#CC2(C)CCc3c(C)c(O)c(C)c(C)c3O2)ccc1O (racemic) [Example 23, rac-5-(3,4-Dihydro-6-hydroxy-2,5,7,8-tetramethyl-2H-1-benzopyran-2-yl)ethynyl]-2-hydroxybenzoic acid methyl ester] | 160 nM |
| Cc1c(C)c2c(c(C)c1O)CCC(C)(C#Cc1ccc(-c3cccnc3)cc1)O2 (racemic) [Example 24, rac-3,4-Dihydro-2,5,7,8-tetramethyl-2-{[4-(3-pyridinyl)-phenyl]ethynyl}-2H-1-benzopyran-6-ol] | 160 nM |
| Cc1c(C)c2c(c(C)c1O)CCC(C)(C#Cc1ccc(-c3ccccn3)s1)O2 (racemic) [Example 26, rac-3,4-Dihydro-2,5,7,8-tetramethyl-2-{[5-(2-pyridinyl)-2-thienyl]ethynyl}-2H-1-benzopyran-6-ol] | 160 nM |
| COc1cc(C=O)cc(C#CC2(C)CCc3c(C)c(O)c(C)c(C)c3O2)c1O (racemic) [Example 28, rac-3-[(3,4-Dihydro-6-hydroxy-2,5,7,8-tetramethyl-2H-1-benzopyran-2-yl)ethynyl]-4-hydroxy-5-methoxybenzaldehyde] | 130 nM |
| COc1cc(CO)cc(C#CC2(C)CCc3c(C)c(O)c(C)c(C)c3O2)c1O (racemic) [Example 29, rac-3-[(3,4-Dihydro-6-hydroxy-2,5,7,8-tetramethyl-2H-1-benzopyran-2-yl)ethynyl]-4-hydroxy-5-methoxybenzenemethanol] | 130 nM |
| COc1cc(C=NO)cc(C#CC2(C)CCc3c(C)c(O)c(C)c(C)c3O2)c1O (racemic) [Example 30, rac-3-[(3,4-Dihydro-6-hydroxy-2,5,7,8-tetramethyl-2H-1-benzopyran-2yl)ethynyl]-4-hydroxy-5-methoxybenzaldehydeoxime] | 160 nM |
| CCCCc1ccc(C#CC2(C)CCc3c(C)c(O)c(C)c(C)c3O2)s1 (racemic) [Example 31, rac-2-[(5-Butyl-2-thienyl)ethynyl]-3,4-dihydro-2,5,7,8-tetramethyl-2H-1-benzopyran-6-ol] | 1000 nM |
| Cc1c(C)c2c(c(C)c1O)CCC(C)(C#Cc1cnc3ccccc3c1)O2 (racemic) [Example 33, rac-3,4-Dihydro-2,5,7,8-tetramethyl-2-(3-quinolinylethynyl)-2H-1-benzopyran-6-ol] | 160 nM |
| Cc1c(C)c2c(c(C)c1O)CCC(C)(C#Cc1cncc3ccccc13)O2 (racemic) [Example 34, rac-3,4-Dihydro-2-[(4-isoquinolinyl)ethynyl]-2,5,7,8-tetramethyl-2H-1-benzopyran-6-ol] | 1000 nM |
| Cc1c(C)c2c(c(C)c1O)CCC(C)(C#Cc1cccc(C(F)(F)F)c1)O2 (racemic) [Example 35, rac-2-{[3-(Trifluoromethyl)phenyl]ethynyl-3,4-dihydro-2,5,7,8-tetramethyl-2H-1-benzopyran-6-ol] | 190 nM |
| Cc1c(C)c2c(c(C)c1O)CCC(C)(C#Cc1ccc(F)c(F)c1)O2 (racemic) [Example 36, rac-2-[(3,4-Difluorophenyl)ethynyl]-3,4-dihydro-2,5,7,8-tetramethyl-2H-1-benzopyran-6-ol] | 120 nM |
| Cc1c(C)c2c(c(C)c1O)CCC(C)(C#Cc1cccc3ccccc13)O2 (racemic) [Example 39, rac-3,4-Dihydro-2,5,7,8-tetramethyl-2-(1-naphthyl)ethynyl-2H-1-benzopyran-6-ol] | 500 nM |
| Cc1c(C)c2c(c(C)c1O)CCC(C)(C#Cc1ccccc1N)O2 (racemic) [Example 40, rac-2-[(2-Aminophenyl)ethynyl]-3,4-dihydro-2,5,7,8-tetramethyl-2H-1-benzopyran-6-ol] | 20 nM |
| CC(=O)Oc1cc(C#CC2(C)CCc3c(C)c(O)c(C)c(C)c3O2)ccc1OCc1ccccc1 (racemic) [Example 41, rac-2-{[3-Acetyloxy-4-(phenylmethoxy)phenyl]ethynyl}-3,4-dihydro-2,5,7,8-tetramethyl-2H-1-benzopyran-6-ol] | 32 nM |
| Cc1c(C)c2c(c(C)c1O)CCC(C)(C#Cc1ccc(OCc3ccccc3)c(O)c1)O2 (racemic) [Example 43, rac-3,4-Dihydro-2-{[3-hydroxy-4-(phenylmethoxY)phenyl]-ethynyl}-2,5,7,8-tetramethyl-2H-1-benzopyran-6-ol] | 24 nM |
